The results in this text go back to BindingDB's records for doi:10.1038/nchembio.662 (University of California San Francisco, 2011).

Structures are written as SMILES. Where only a bound is given, the exact number is not on record here.

Chain of D(3) dopamine receptor (P35462 as listed by the source): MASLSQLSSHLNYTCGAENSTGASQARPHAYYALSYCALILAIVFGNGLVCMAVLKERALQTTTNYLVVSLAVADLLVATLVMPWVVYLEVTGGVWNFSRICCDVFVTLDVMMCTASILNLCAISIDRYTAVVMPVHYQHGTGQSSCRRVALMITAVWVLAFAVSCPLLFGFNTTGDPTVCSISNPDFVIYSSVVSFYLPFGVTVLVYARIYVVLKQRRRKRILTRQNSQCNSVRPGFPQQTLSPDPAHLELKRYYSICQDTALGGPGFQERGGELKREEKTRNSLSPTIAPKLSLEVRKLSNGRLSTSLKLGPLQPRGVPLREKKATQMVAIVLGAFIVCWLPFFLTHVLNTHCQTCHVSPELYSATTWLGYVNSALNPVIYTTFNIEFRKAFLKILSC

The target in one experiment is D(2) dopamine receptor (Homo sapiens, UniProt P14416). The experiment can be described thus: Binding Assay. The following applies: pH 7.4; 22 °C. The procedure: (§1) Affinities for D3-dopaminergic, D2-dopaminergic and beta2-adrenergic receptors were determined by radioligand competition binding at the National Institute of Mental Health Psychoactive Drug Screening Program.
Chain of D(2) dopamine receptor (P14416 whole entry): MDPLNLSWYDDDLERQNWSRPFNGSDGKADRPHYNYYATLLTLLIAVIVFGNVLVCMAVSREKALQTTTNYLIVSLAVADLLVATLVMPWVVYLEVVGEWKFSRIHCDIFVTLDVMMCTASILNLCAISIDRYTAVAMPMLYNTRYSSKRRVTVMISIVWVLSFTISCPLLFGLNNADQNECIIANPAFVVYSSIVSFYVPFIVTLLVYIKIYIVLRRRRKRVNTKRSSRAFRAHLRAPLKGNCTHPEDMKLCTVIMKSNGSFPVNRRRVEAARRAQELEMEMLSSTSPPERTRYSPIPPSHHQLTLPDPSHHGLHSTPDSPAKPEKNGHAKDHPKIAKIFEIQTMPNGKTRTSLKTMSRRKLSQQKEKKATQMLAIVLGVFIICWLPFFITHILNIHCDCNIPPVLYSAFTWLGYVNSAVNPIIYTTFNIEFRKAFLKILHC
`CC(C)(C)NCc1ccc(-c2ccccc2)o1` [ZINC 4942833, 65]: affinity was put at a Ki of 2.9 µM.

Turning to `CCSc1nnc2n1CCCN2C(=O)CN1CCOCC1` [ZINC 17173082, 12], the Ki (commonly a measure of affinity in units of concentration, obtained from inhibition or displacement) worked out at 6.35 µM.

In the case of `Clc1ccc(Cl)c(-c2ccc(CNC3CC3)o2)c1` [ZINC 4868730, 70], affinity was put at a Ki of 6.61 µM.

The next experiment concerns the target D(3) dopamine receptor (Homo sapiens, UniProt P35462). Put plainly: Binding Assay. The note with it: pH 7.4; 22 °C. The method, then: as §1
`CC(C)(CO)NCc1ccc(-c2ccc(F)c(Cl)c2)o1` [ZINC 4942963, 64] yielded a Ki of 6.81 µM. On the same count and under the same terms, to `CN(Cc1nc2ccccc2s1)C[C@H](O)Cc1ccccc1` [ZINC 27406499, 25] belongs above 10 µM. `CN(C)[C@H](CNC(=O)c1cc([N+](=O)[O-])cc([N+](=O)[O-])c1)c1ccco1` [ZINC 49944321, 48] yielded an inhibition constant (Ki) of 7.77 µM. Take `CC(C)(C)NCc1ccc(-c2ccccc2Cl)o1` [ZINC 6743145, 66]: the affinity, expressed as Ki, was 5.46 µM. The same measure, in the same setting: to `CC(C)NCc1ccc(-c2ccccc2)o1` [ZINC 10436232, 69] belongs 8.89 µM. The same measure, in the same setting: to `Cc1cccc2nc(C(=O)NCC(c3ccco3)N(C)C)cn12` (configuration not stated) [ZINC 41903371, 52] belongs 10 µM.

Compound `CC(C)(C)NCc1ccc(-c2ccccc2)o1` [ZINC 4942833, 65] displayed a Ki of 8.67 µM.

For the compound `Cc1ccc(-c2ccc(CNC(C)(C)CO)o2)cc1Cl` [ZINC 4999756, 68], the inhibitory constant (Ki) came to 2.74 µM. Still for that read-out and setting: to `CC(C)(CO)NCc1ccc(-c2ccccc2)o1` [ZINC 529108, 67] belongs 9.58 µM; to `CCSc1nnc2n1CCCN2C(=O)CN1CCOCC1` [ZINC 17173082, 12], 9.83 µM; to `CC1CCN(CCC(=O)N2c3ccccc3C[C@@H]2C)CC1` [ZINC 39217391, 11], 9.28 µM. The same measure, in the same setting: to `Cc1cccc2nc(C(=O)NCC(C)N(C)C)cn12` (configuration not stated) [ZINC 46272073, 50] belongs 10 µM. The compound `N#C/C(=C\c1ccco1)C(=O)N1CCN(CCc2ccccc2)CC1` [ZINC 29218552, 47] yielded an inhibition constant (Ki) of 10 µM. The same measure, in the same setting: to `C[C@H](C1CC1)N(CCC(=O)N1CCc2ccccc21)C1CC1` [ZINC 42123507, 27] belongs above 10 µM; to `CN(CCOc1cccc(F)c1)CC(O)c1c(F)cccc1F` (configuration not stated) [ZINC 51423503, 49], 8.74 µM; to `CC[C@@H](CO)NCc1ccc(-c2cccc(Cl)c2C)o1` [ZINC 7538899, 72], 0.817 µM.

`c1ccc(Cn2cncn2)c(CNCc2ccc(-n3ccnc3)cc2)c1` [ZINC 30900826, 10] gave an inhibition constant Ki of 10 µM. `CNCc1ccc(-c2cc(Cl)cc(Cl)c2)o1` [Azanium analog, 55] gave a Ki of 0.2 µM. As to `O=c1oc2c(CN3CCCC3)c(O)ccc2c2c1CCC2` [ZINC 118327, 8], the inhibition constant (Ki) is above 10 µM.

Take `C[C@H](O)CNCc1ccc(-c2cccc(Cl)c2)o1` [ZINC 4842613, 71]: the Ki was 0.488 µM.

In turn, `O[C@@H](CN1CCC(Oc2cccc(F)c2)CC1)c1cccs1` [ZINC 19294224, 9] came in with a Ki of 9.46 µM. Same read-out and setting: to `c1ccc(-c2n[nH]cc2CNCc2ccc(Cn3ccnc3)cc2)cc1` [ZINC 42228310, 26] belongs 9.31 µM; to `CN(CCCOc1ccccc1)CC(=O)N1CCc2ccccc21` [ZINC 48057418, 45], 7.21 µM. Consider `Clc1ccc(Cl)c(-c2ccc(CNC3CC3)o2)c1` [ZINC 4868730, 70], for which the inhibition constant Ki came to 2.71 µM.
